Results from the supplement of paper PMC10307832.

What was measured:
Assay in all cases: relative viability (nuclei count vs DMSO), 5 days (fraction); higher = more cells survive
NCI-H1355 = system: NCI-H1355
Summary of the method: (§1)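 Relative viability was taken as the ratio of nuclei in treated wells to nuclei in vehicle wells. Lung cancer cell lines in 1536-well plates received compounds by pin tool one day after seeding, either one drug alone or a fixed anchor-drug dose plus five library-drug doses (not always all listed) in √10 steps. Nuclei were counted on 4× images after 5 days of treatment, and values are medians of duplicate plates.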

NCI-H520 = system: NCI-H520
Summary of the method: as §1

CAL-12T = system: CAL-12T
Summary of the method: as §1

NCI-H1944 = system: NCI-H1944
Summary of the method: as §1

NCI-H322M = system: NCI-H322M
Summary of the method: as §1

NCI-H661 = system: NCI-H661
Summary of the method: as §1

LC-2-ad = system: LC-2-ad
Summary of the method: as §1

NCI-H1651 = system: NCI-H1651
Summary of the method: as §1

NCI-H838 = system: NCI-H838
Summary of the method: as §1

NCI-H1666 = system: NCI-H1666
Summary of the method: as §1

201T = system: 201T
Summary of the method: as §1

NCI-H2228 = system: NCI-H2228
Summary of the method: as §1

ChaGo-K-1 = system: ChaGo-K-1
Summary of the method: as §1

COR-L23 = system: COR-L23
Summary of the method: as §1

NCI-H1993 = system: NCI-H1993
Summary of the method: as §1

NCI-H1734 = system: NCI-H1734
Summary of the method: as §1

NCI-H2170 = system: NCI-H2170
Summary of the method: as §1

NCI-H2342 = system: NCI-H2342
Summary of the method: as §1

HOP-62 = system: HOP-62
Summary of the method: as §1

RERF-LC-KJ = system: RERF-LC-KJ
Summary of the method: as §1

NCI-H1395 = system: NCI-H1395
Summary of the method: as §1

NCI-H2085 = system: NCI-H2085
Summary of the method: as §1

With `COCC1(CO)C(=O)C2CCN1CC2` (stereo not given) [PRIMA-1MET] + O=C(CCCCCCC(=O)Nc1ccccc1)NO [Vorinostat] (partner 1 µM) the relative viability (NCI-H1355; first compound 0.2 µM) was 0.648, the relative viability (NCI-H1355; first compound 0.6325 µM) was 0.632 and the relative viability (NCI-H1355; first compound 2 µM) was 0.556. For the same molecule, the relative viability (NCI-H1355; first compound 6.325 µM) was 0.671, the relative viability (NCI-H1355; first compound 20 µM) was 0.58 and the relative viability (NCI-H520; first compound 0.2 µM) was 0.807. It also gave a relative viability (NCI-H520; first compound 2 µM) of 0.621, a relative viability (NCI-H520; first compound 6.325 µM) of 0.652 and a relative viability (NCI-H520; first compound 20 µM) of 0.149. The relative viability (CAL-12T; first compound 0.2 µM) was 0.78, the relative viability (CAL-12T; first compound 0.6325 µM) was 0.694 and the relative viability (CAL-12T; first compound 2 µM) was 0.637. The relative viability (CAL-12T; first compound 6.325 µM) was 0.589, the relative viability (CAL-12T; first compound 20 µM) was 0.0657 and the relative viability (NCI-H1944; first compound 0.2 µM) was 0.724. It also gave a relative viability (NCI-H1944; first compound 0.6325 µM) of 0.4, a relative viability (NCI-H1944; first compound 2 µM) of 0.428 and a relative viability (NCI-H1944; first compound 6.325 µM) of 0.531. For the same molecule, the relative viability (NCI-H1944; first compound 20 µM) was 0.539, the relative viability (NCI-H322M; first compound 0.2 µM) was 1.05 and the relative viability (NCI-H322M; first compound 0.6325 µM) was 0.806. The relative viability (NCI-H322M; first compound 6.325 µM) was 0.994, the relative viability (NCI-H322M; first compound 20 µM) was 0.837 and the relative viability (NCI-H661; first compound 0.2 µM) was 0.853. For the same molecule, the relative viability (NCI-H661; first compound 0.6325 µM) was 0.771, the relative viability (NCI-H661; first compound 2 µM) was 0.774 and the relative viability (NCI-H661; first compound 6.325 µM) was 0.816. The relative viability (NCI-H661; first compound 20 µM) was 0.759, the relative viability (LC-2-ad; first compound 0.2 µM) was 0.798 and the relative viability (LC-2-ad; first compound 0.6325 µM) was 0.578. For the same molecule, the relative viability (LC-2-ad; first compound 2 µM) was 0.679, the relative viability (LC-2-ad; first compound 6.325 µM) was 0.733 and the relative viability (LC-2-ad; first compound 20 µM) was 0.645. For the same molecule, the relative viability (NCI-H1651; first compound 0.2 µM) was 0.563, the relative viability (NCI-H1651; first compound 0.6325 µM) was 0.188 and the relative viability (NCI-H1651; first compound 2 µM) was 0.458. The relative viability (NCI-H1651; first compound 6.325 µM) was 0.617, the relative viability (NCI-H1651; first compound 20 µM) was 0.564 and the relative viability (NCI-H838; first compound 0.2 µM) was 0.769. The relative viability (NCI-H838; first compound 0.6325 µM) was 0.691, the relative viability (NCI-H838; first compound 2 µM) was 0.694 and the relative viability (NCI-H838; first compound 6.325 µM) was 0.762. It also gave a relative viability (NCI-H838; first compound 20 µM) of 0.546, a relative viability (NCI-H1666; first compound 0.2 µM) of 1.03 and a relative viability (NCI-H1666; first compound 0.6325 µM) of 0.915. The relative viability (NCI-H1666; first compound 2 µM) was 1.05, the relative viability (NCI-H1666; first compound 6.325 µM) was 1.07 and the relative viability (NCI-H1666; first compound 20 µM) was 0.956. It also gave a relative viability (201T; first compound 0.2 µM) of 1.15, a relative viability (201T; first compound 0.6325 µM) of 0.676 and a relative viability (201T; first compound 2 µM) of 0.797. It also gave a relative viability (201T; first compound 6.325 µM) of 0.991, a relative viability (201T; first compound 20 µM) of 0.98 and a relative viability (NCI-H2228; first compound 0.2 µM) of 0.792. It also gave a relative viability (NCI-H2228; first compound 0.6325 µM) of 0.74, a relative viability (NCI-H2228; first compound 2 µM) of 0.6 and a relative viability (NCI-H2228; first compound 6.325 µM) of 0.606. The relative viability (NCI-H2228; first compound 20 µM) was 0.0625, the relative viability (ChaGo-K-1; first compound 0.2 µM) was 0.858 and the relative viability (ChaGo-K-1; first compound 0.6325 µM) was 0.431. It also gave a relative viability (ChaGo-K-1; first compound 2 µM) of 0.627, a relative viability (ChaGo-K-1; first compound 6.325 µM) of 0.743 and a relative viability (ChaGo-K-1; first compound 20 µM) of 0.709. It also gave a relative viability (COR-L23; first compound 0.2 µM) of 0.487, a relative viability (COR-L23; first compound 0.6325 µM) of 0.432 and a relative viability (COR-L23; first compound 2 µM) of 0.454. It also gave a relative viability (COR-L23; first compound 6.325 µM) of 0.344, a relative viability (COR-L23; first compound 20 µM) of 0.0281 and a relative viability (NCI-H1993; first compound 0.2 µM) of 0.743. The relative viability (NCI-H1993; first compound 2 µM) was 0.629, the relative viability (NCI-H1993; first compound 6.325 µM) was 0.651 and the relative viability (NCI-H1993; first compound 20 µM) was 0.619. For the same molecule, the relative viability (NCI-H1734; first compound 0.2 µM) was 1.08, the relative viability (NCI-H1734; first compound 0.6325 µM) was 0.718 and the relative viability (NCI-H1734; first compound 2 µM) was 0.777. The relative viability (NCI-H1734; first compound 6.325 µM) was 0.536, the relative viability (NCI-H1734; first compound 20 µM) was 0.0676 and the relative viability (NCI-H2170; first compound 0.2 µM) was 1.05. The relative viability (NCI-H2170; first compound 0.6325 µM) was 0.801, the relative viability (NCI-H2170; first compound 2 µM) was 0.721 and the relative viability (NCI-H2170; first compound 6.325 µM) was 0.795. It also gave a relative viability (NCI-H2170; first compound 20 µM) of 0.774, a relative viability (NCI-H2342; first compound 0.2 µM) of 0.694 and a relative viability (NCI-H2342; first compound 0.6325 µM) of 0.913. It also gave a relative viability (NCI-H2342; first compound 6.325 µM) of 0.748, a relative viability (NCI-H2342; first compound 20 µM) of 0.607 and a relative viability (HOP-62; first compound 0.2 µM) of 0.59. The relative viability (HOP-62; first compound 0.6325 µM) was 0.445, the relative viability (HOP-62; first compound 2 µM) was 0.488 and the relative viability (HOP-62; first compound 6.325 µM) was 0.623. The relative viability (HOP-62; first compound 20 µM) was 0.245, the relative viability (RERF-LC-KJ; first compound 0.2 µM) was 0.817 and the relative viability (RERF-LC-KJ; first compound 0.6325 µM) was 0.507. For the same molecule, the relative viability (RERF-LC-KJ; first compound 2 µM) was 0.589, the relative viability (RERF-LC-KJ; first compound 6.325 µM) was 0.911 and the relative viability (RERF-LC-KJ; first compound 20 µM) was 0.659. It also gave a relative viability (NCI-H1395; first compound 0.2 µM) of 0.623, a relative viability (NCI-H1395; first compound 2 µM) of 0.534 and a relative viability (NCI-H1395; first compound 6.325 µM) of 0.762. It also gave a relative viability (NCI-H1395; first compound 20 µM) of 0.26, a relative viability (NCI-H2085; first compound 0.2 µM) of 1.06 and a relative viability (NCI-H2085; first compound 0.6325 µM) of 0.776. The relative viability (NCI-H2085; first compound 2 µM) was 0.706, the relative viability (NCI-H2085; first compound 6.325 µM) was 0.798 and the relative viability (NCI-H2085; first compound 20 µM) was 0.154.
